Patent US20110028441A1, “NOVEL PHENYL-SUBSTITUTED PIPERAZINO-DIHYDROTHIENOPYRIMIDINES” (BOEHRINGER INGELHEIM INTERNATIONAL GMBH, priority 2007, published 2011)
Where two headings read alike, the source gives them in different places.

Target: PDE4B (Homo sapiens, UniProt Q07343)
Assay: Scintillation Proximity (SPA) Assay of PDE4B enzyme inhibition
Format: biochemical
Conditions: read-out: % Inhibition PDE4B @ 1 μM
Protocol: The inhibitions (in %) at 1 μM of the individual Example substances are included in the following Tables of Examples and were determined as follows:
The Scintillation Proximity (SPA) Assays (GE Healthcare, No. TRKQ7090) make use of the different affinities of cyclic 3′-5′-adenosine monophosphate (cAMP, low affinity) and linear 5′-adenosine monophosphate (AMP, high affinity) for yttrium silicate scintillator beads. The cAMP specific phosphodiesterase (PDE) PDE4B cleaves the 3′-phosphoester bond of the tritium-labelled [H3]-cAMP to form the [H3]-5′-AMP. Because of its higher affinity for the scintillator beads this [H3]-AMP accumulates on the beads and causes scintillation events (flashes of light) which are measured in a Wallac Microbeta Scintillation Counter.
The test starts with one hours incubation of [H3]-cAMP with the PDE4B enzyme in assay buffer at 30° C., once with the Example substance that is to be tested (in a concentration of 1 μM) and once without the Example substance that is to be tested. After this incubation the reaction is stopped by the addition of the beads. The beads are given an opportunity to settle over the next 45 minutes, then they are measured in the Scintillation Counter. If the substance is capable of inhibiting the enzymatic activity of the PDE4B, less [H3]-AMP is formed during the incubation phase and fewer scintillation events can be measured.

[1] = test substance 1 μM, one hour incubation of [H3]-cAMP with PDE4B enzyme at 30° C.

Chain of PDE4B (Q07343 whole entry, species assumed): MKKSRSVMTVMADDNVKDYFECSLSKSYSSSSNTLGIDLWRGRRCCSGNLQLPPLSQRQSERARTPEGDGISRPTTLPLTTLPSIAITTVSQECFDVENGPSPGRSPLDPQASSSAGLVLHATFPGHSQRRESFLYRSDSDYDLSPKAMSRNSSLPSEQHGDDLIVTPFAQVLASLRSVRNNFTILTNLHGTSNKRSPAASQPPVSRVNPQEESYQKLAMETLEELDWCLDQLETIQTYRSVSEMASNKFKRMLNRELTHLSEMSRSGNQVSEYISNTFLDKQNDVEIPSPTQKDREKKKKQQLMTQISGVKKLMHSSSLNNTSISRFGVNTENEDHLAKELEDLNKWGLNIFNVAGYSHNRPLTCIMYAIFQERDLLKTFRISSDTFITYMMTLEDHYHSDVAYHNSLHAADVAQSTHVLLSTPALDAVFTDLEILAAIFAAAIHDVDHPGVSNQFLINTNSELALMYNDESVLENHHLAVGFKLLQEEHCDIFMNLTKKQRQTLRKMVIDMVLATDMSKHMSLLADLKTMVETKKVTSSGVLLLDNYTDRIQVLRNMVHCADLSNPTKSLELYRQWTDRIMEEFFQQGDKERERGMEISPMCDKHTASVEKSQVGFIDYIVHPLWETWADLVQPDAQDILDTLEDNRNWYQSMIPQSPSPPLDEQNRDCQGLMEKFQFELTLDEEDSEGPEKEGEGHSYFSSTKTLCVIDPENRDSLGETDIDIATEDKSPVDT

`CC(C)[C@H](CO)Nc1nc(N2CCN(c3ccccc3C#N)CC2)nc2c1[S+]([O-])CC2` (stereo partly drawn) [Example 2, 2-{4-[4-((R)-1-hydroxymethyl-2-methylpropylamino)-5-oxo-6,7-dihydro-5H-5λ^4-thieno[3,2-d]pyrimidin-2-yl]piperazin-1-yl}-benzonitrile] was tested, and the inhibition at 1 µM [1] was 92%.

In the case of `CC(C)[C@H](CO)Nc1nc(N2CCN(c3ccccc3Cl)CC2)nc2c1[S+]([O-])CC2` (stereo partly drawn) [Example 4, (R)-2-{2-[4-(2-CHLOROPHENYL)-PIPERAZIN-1-YL]-5-OXO-6,7-DIHYDRO-5H-5λ^4-THIENO[3,2-D]PYRIMIDIN-4-YLAMINO}-3-METHYLBUTAN-1-OL], the inhibition at 1 µM [1] is reported as 88%.

With `[O-][S+]1CCc2nc(N3CCN(c4ccccc4Cl)CC3)nc(NC3(CO)CC3)c21` (stereo not shown) [Example 7, (1-{2-[4-(2-chlorophenyl)-piperazin-1-yl]-5-oxo-6,7-dihydro-5H-5λ^4-thieno[3,2-d]pyrimidin-4-ylamino}-cyclopropyl)-methanol] the inhibition at 1 µM [1] was 94%.

With `CN1C[C@@H](Nc2nc(N3CCN(c4ccccc4Cl)CC3)nc3c2[S+]([O-])CC3)CCC1=O` (stereo partly drawn) [Example 14, (S)-5-{2-[4-(2-chlorophenyl)-piperazin-1-yl]-5-oxo-6,7-dihydro-5H-5λ^4-thieno[3,2-d]pyrimidin-4-ylamino}-1-methylpiperidin-2-one] the inhibition at 1 µM [1] was 96%.

`[O-][S+]1CCc2nc(N3CCN(c4ccccc4Cl)CC3)nc(NC3CCOCC3)c21` (stereo not shown) [Example 19, {2-[4-(2-chlorophenyl)-piperazin-1-yl]-5-oxo-6,7-dihydro-5H-5λ^4-thieno[3,2-d]pyrimidin-4-yl}-(tetrahydropyran-4-yl)-amine] showed an inhibition at 1 µM [1] of 95%.

For `COc1ccccc1N1CCN(c2nc3c(c(Nc4cccc(F)c4)n2)[S+]([O-])CC3)CC1` (stereo not shown) [Example 21, (3-FLUOROPHENYL)-{2-[4-(2-METHOXYPHENYL)-PIPERAZIN-1-YL]-5-OXO-6,7-DIHYDRO-5H-5λ^4-THIENO[3,2-D]PYRIMIDIN-4-YL}-AMINE], the inhibition at 1 µM [1] was 96%.

Work on `N#Cc1ccccc1N1CCN(c2nc3c(c(Nc4cccc(F)c4)n2)[S+]([O-])CC3)CC1` (stereo not shown) [Example 22, 2-{4-[4-(3-FLUOROPHENYLAMINO)-5-OXO-6,7-DIHYDRO-5H-5λ^4-THIENO[3,2-D]PYRIMIDIN-2-YL]-PIPERAZIN-1-YL}-BENZONITRILE] yielded an inhibition at 1 µM [1] of 97%.

`[O-][S+]1CCc2nc(N3CCN(c4ccccc4Cl)CC3)nc(Nc3cccc(F)c3)c21` (stereo not shown) [Example 24, {2-[4-(2-CHLOROPHENYL)-PIPERAZIN-1-YL]-5-OXO-6,7-DIHYDRO-5H-5λ^4-THIENO[3,2-D]PYRIMIDIN-4-YL}-(3-FLUOROPHENYL)-AMINE] was tested, and the inhibition at 1 µM [1] was 95%.

In the case of `CC(C)C(CO)Nc1nc(N2CCN(c3cccc(F)c3)CC2)nc2c1[S+]([O-])CC2` [Example 27, (R)-2-{2-[4-(3-FLUOROPHENYL)-PIPERAZIN-1-YL]-5-OXO-6,7-DIHYDRO-5H-5λ^4-THIENO[3,2-D]PYRIMIDIN-4-YLAMINO}-3-METHYLBUTAN-1-OL], the inhibition at 1 µM [1] is reported as 96%.

For `Cc1cccc(N2CCN(c3nc4c(c(NC(CO)C(C)C)n3)[S+]([O-])CC4)CC2)c1` [Example 30, (R)-3-METHYL-2-[5-OXO-2-(4-m-TOLYLPIPERAZIN-1-YL)-6,7-DIHYDRO-5H-5λ^4-THIENO[3,2-D]PYRIMIDIN-4-YLAMINO]-BUTAN-1-OL], the inhibition at 1 µM [1] was 94%.

Compound `[O-][S+]1CCc2nc(N3CCN(c4cccc(F)c4)CC3)nc(NC3(CO)CC3)c21` (stereo not shown) [Example 32, (1-{2-[4-(3-FLUOROPHENYL)-PIPERAZIN-1-YL]-5-OXO-6,7-DIHYDRO-5H-5λ^4-THIENO[3,2-D]PYRIMIDIN-4-YLAMINO}-CYCLOPROPYL)-METHANOL] has an inhibition at 1 µM [1] of 97%.

Compound `CN1C[C@@H](Nc2nc(N3CCN(c4cccc(F)c4)CC3)nc3c2[S+]([O-])CC3)CCC1=O` (stereo partly drawn) [Example 37, (S)-5-{2-[4-(3-FLUOROPHENYL)-PIPERAZIN-1-YL]-5-OXO-6,7-DIHYDRO-5H-5λ^4-THIENO[3,2-D]PYRIMIDIN-4-YLAMINO}-1-METHYLPIPERIDIN-2-ONE] has an inhibition at 1 µM of 97%.

With `[O-][S+]1CCc2nc(N3CCN(c4cccc(F)c4)CC3)nc(NC3CCOCC3)c21` (stereo not shown) [Example 42, {2-[4-(3-FLUOROPHENYL)-PIPERAZIN-1-YL]-5-OXO-6,7-DIHYDRO-5H-5λ^4-THIENO[3,2-D]PYRIMIDIN-4-YL}-(TETRAHYDROPYRAN-4-YL)-AMINE] the inhibition at 1 µM [1] was 96%.

For `[O-][S+]1CCc2nc(N3CCN(c4cccc(F)c4)CC3)nc(Nc3cccc(F)c3)c21` (stereo not shown) [Example 47, (3-FLUOROPHENYL)-{2-[4-(3-FLUOROPHENYL)-PIPERAZIN-1-YL]-5-OXO-6,7-DIHYDRO-5H-5λ^4-THIENO[3,2-D]PYRIMIDIN-4-YL}-AMINE], the inhibition at 1 µM [1] was 96%.

Work on `Cc1cccc(N2CCN(c3nc4c(c(Nc5cccc(F)c5)n3)[S+]([O-])CC4)CC2)c1` (stereo not shown) [Example 50, (3-FLUOROPHENYL)-[5-OXO-2-(4-m-TOLYLPIPERAZIN-1-YL)-6,7-DIHYDRO-5H-5λ^4-THIENO[3,2-D]PYRIMIDIN-4-YL]-AMINE] yielded an inhibition at 1 µM [1] of 96%.

For `CC(C)C(CO)Nc1nc(N2CCN(c3ccc(Cl)c(C#N)c3)CC2)nc2c1[S+]([O-])CC2` [Example 53, 2-chloro-5-{4-[4-((R)-1-hydroxymethyl-2-methyl-propylamino)-5-oxo-6,7-dihydro-5H-5λ^4-thieno[3,2-d]pyrimidin-2-yl]-piperazin-1-yl}-benzonitrile], the inhibition at 1 µM [1] was 89%.

With `Cc1cc(N2CCN(c3nc4c(c(NC(CO)C(C)C)n3)[S+]([O-])CC4)CC2)ccc1Cl` [Example 54, (R)-2-{2-[4-(4-chloro-3-methylphenyl)-piperazin-1-yl]-5-oxo-6,7-dihydro-5H-5λ^4-thieno[3,2-d]pyrimidin-4-ylamino}-3-methylbutan-1-ol] the inhibition at 1 µM [1] was 63%.

Compound `CCC[C@H](CO)Nc1nc(N2CCN(c3ccc(Cl)c(C(F)(F)F)c3)CC2)nc2c1[S+]([O-])CC2` (stereo partly drawn) [Example 56, (R)-2-{2-[4-(4-chloro-3-trifluoromethylphenyl)-piperazin-1-yl]-5-oxo-6,7-dihydro-5H-5λ^4-thieno[3,2-d]pyrimidin-4-ylamino}-pentan-1-ol] has an inhibition at 1 µM [1] of 94%.

`[O-][S+]1CCc2nc(N3CCN(c4ccc(Cl)c(Cl)c4)CC3)nc(NC3(CO)CC3)c21` (stereo not shown) [Example 57, (1-{2-[4-(3,4-DICHLOROPHENYL)-PIPERAZIN-1-YL]-5-OXO-6,7-DIHYDRO-5H-5λ^4-THIENO[3,2-D]PYRIMIDIN-4-YLAMINO}-CYCLOPROPYL)-METHANOL] was tested, and the inhibition at 1 µM [1] was 96%.

With `[O-][S+]1CCc2nc(N3CCN(c4ccc(Cl)c(Cl)c4)CC3)nc(NC3CCOCC3)c21` (stereo not shown) [Example 58, {2-[4-(3,4-DICHLOROPHENYL)-PIPERAZIN-1-YL]-5-OXO-6,7-DIHYDRO-5H-5λ^4-THIENO[3,2-D]PYRIMIDIN-4-YL}-(TETRAHYDROPYRAN-4-YL)-AMINE] the inhibition at 1 µM [1] was 96%.

For `CN1C[C@@H](Nc2nc(N3CCN(c4ccc(Cl)c(Cl)c4)CC3)nc3c2[S+]([O-])CC3)CCC1=O` (stereo partly drawn) [Example 59, (S)-5-{2-[4-(3,4-DICHLOROPHENYL)-PIPERAZIN-1-YL]-5-OXO-6,7-DIHYDRO-5H-5λ^4-THIENO[3,2-D]PYRIMIDIN-4-YLAMINO}-1-METHYLPIPERIDIN-2-ONE], the inhibition at 1 µM was 96%.

`CC(C)C(CO)Nc1nc(N2CCN(c3ccc(Cl)c(F)c3)CC2)nc2c1[S+]([O-])CC2` [Example 60, (R)-2-{2-[4-(4-chloro-3-fluorophenyl)-piperazin-1-yl]-5-oxo-6,7-dihydro-5H-5λ^4-thieno[3,2-d]pyrimidin-4-ylamino}-3-methylbutan-1-ol] was tested, and the inhibition at 1 µM [1] was 94%.

`[O-][S+]1CCc2nc(N3CCN(c4ccc(Cl)c(F)c4)CC3)nc(NC3(CO)CC3)c21` (stereo not shown) [Example 61, (1-{2-[4-(4-CHLORO-3-FLUOROPHENYL)-PIPERAZIN-1-YL]-5-OXO-6,7-DIHYDRO-5H-5λ^4-THIENO[3,2-D]PYRIMIDIN-4-YLAMINO}-CYCLOPROPYL)-METHANOL] showed an inhibition at 1 µM [1] of 95%.

With `[O-][S+]1CCc2nc(N3CCN(c4ccc(Cl)c(F)c4)CC3)nc(NC3CCOCC3)c21` (stereo not shown) [Example 62, {2-[4-(4-CHLORO-3-FLUOROPHENYL)-PIPERAZIN-1-YL]-5-OXO-6,7-DIHYDRO-5H-5λ^4-THIENO[3,2-D]PYRIMIDIN-4-YL}-(TETRAHYDROPYRAN-4-YL)-AMINE] the inhibition at 1 µM [1] was 95%.

In the case of `[O-][S+]1CCc2nc(N3CCN(c4ccc(Cl)c(F)c4)CC3)nc(Nc3cccc(F)c3)c21` (stereo not shown) [Example 63, {2-[4-(4-CHLORO-3-FLUOROPHENYL)-PIPERAZIN-1-YL]-5-OXO-6,7-DIHYDRO-5H-5λ^4-THIENO[3,2-D]PYRIMIDIN-4-YL}-(3-FLUOROPHENYL)-AMINE], the inhibition at 1 µM [1] is reported as 95%.

`CN1C[C@@H](Nc2nc(N3CCN(c4ccc(Cl)c(F)c4)CC3)nc3c2[S+]([O-])CC3)CCC1=O` (stereo partly drawn) [Example 64, (S)-5-{2-[4-(4-CHLORO-3-FLUOROPHENYL)-PIPERAZIN-1-YL]-5-OXO-6,7-DIHYDRO-5H-5λ^4-THIENO[3,2-D]PYRIMIDIN-4-YLAMINO}-1-METHYLPIPERIDIN-2-ONE] was tested, and the inhibition at 1 µM was 94%.

For `Cc1cc(Cl)ccc1N1CCN(c2nc3c(c(Nc4cccc(F)c4)n2)[S+]([O-])CC3)CC1` (stereo not shown) [Example 67, {2-[4-(4-CHLORO-2-METHYLPHENYL)-PIPERAZIN-1-YL]-5-OXO-6,7-DIHYDRO-5H-5λ^4-THIENO[3,2-D]PYRIMIDIN-4-YL}-(3-FLUOROPHENYL)-AMINE], the inhibition at 1 µM [1] was 94%.

`CC(C)[C@H](CO)Nc1nc(N2CCN(c3cc(Cl)cc(Cl)c3)CC2)nc2c1[S+]([O-])CC2` (stereo partly drawn) [Example 68, (R)-2-{2-[4-(3,5-DICHLOROPHENYL)-PIPERAZIN-1-YL]-5-OXO-6,7-DIHYDRO-5H-5λ^4-THIENO[3,2-D]PYRIMIDIN-4-YLAMINO}-3-METHYLBUTAN-1-OL] was tested, and the inhibition at 1 µM [1] was 96%.
